Test [1] concerns Sclerotinia sclerotiorum. Description: Antifungal activity against Sclerotinia sclerotiorum. The class given is functional, organism-based.
The test system of the next test is Pyricularia oryzae. The test can be described thus: Antifungal activity against Pyricularia oryzae at 150 uM. The class given is functional.
The next test has as its system Phytophthora capsici. Description: Antifungal activity against Phytophthora capsici at 150 uM. The class given is functional.
For the next test, the system named is HepG2. The test can be described thus: Antiproliferative activity against human HepG2 cells assessed as inhibition of cell proliferation incubated for 72 hrs by MTT assay. The class given is functional, cell-based. Conditions: HepG2, 72 h. (In general: Formazan colour is commonly taken as a measure of viable cells.)
Test [2] relates to Sclerotinia sclerotiorum. Description: Antifungal activity against Sclerotinia sclerotiorum at 150 uM. The class given is functional.
Another test deals with MCF7. Description: Antiproliferative activity against human MCF7 cells assessed as inhibition of cell proliferation incubated for 72 hrs by MTT assay. As to conditions: MCF7, 72 h. The class given is functional, cell-based.
The subject of another test is Fusarium graminearum. Description: Antifungal activity against Fusarium graminearum at 150 uM. The class given is functional.
For test [3], the system named is Rhizoctonia solani. Description: Antifungal activity against Rhizoctonia solani. It counts as functional, organism-based.
The subject of test [4] is Rhizoctonia solani. The test can be described thus: Antifungal activity against Rhizoctonia solani at 150 uM. It counts as functional.

For orientation: EC50 means the concentration giving half of the maximal effect. A word on the inhibition: it is the drop in the measured response relative to a control, in per cent.

On to `CC1(C)CCC[C@]2(C)[C@@H](Cc3cc(O)ccc3O)[C@](C)(O)CC[C@@H]12`, for which the EC50 with Sclerotinia sclerotiorum [1] is over 150 µM; in the test with HepG2, over 50 µM; in the test on MCF7, 50 µM; in the test on Rhizoctonia solani [3] it was over 150 µM. The inhibition at 150 µM in the test on Pyricularia oryzae was found to be 28%; in the test on Phytophthora capsici, 28%; in the test with Sclerotinia sclerotiorum [2], 39%; in the test with Fusarium graminearum it was 39%; in the test with Rhizoctonia solani [4], 48%.

On to `CC1(C)CCC[C@]2(C)[C@@H](Cc3ccc(O)cc3O)[C@](C)(O)CC[C@@H]12`, for which the EC50 in the test on Sclerotinia sclerotiorum [1] worked out at 15.2 µM; in the test with HepG2 it was 10.2 µM; in the test with MCF7, 11.9 µM; in the test on Rhizoctonia solani [3], 41.7 µM. Besides, the inhibition at 150 µM in the test with Pyricularia oryzae amounted to 9%; with Phytophthora capsici, 37%; with Sclerotinia sclerotiorum [2], 81%; in the test on Fusarium graminearum, 41%; in the test with Rhizoctonia solani [4], 91%.

For the compound `Cc1c(C[C@@H]2[C@@]3(C)CCCC(C)(C)[C@H]3CC[C@]2(C)O)c(O)cc(O)c1C[C@@H]1[C@@]2(C)CCCC(C)(C)[C@@H]2CC[C@@]1(C)O`, the inhibition at 150 µM in the test on Pyricularia oryzae was -4%; in the test on Phytophthora capsici, 6%; in the test on Sclerotinia sclerotiorum [2], 6%; with Fusarium graminearum it was 4%; with Rhizoctonia solani [4] it was 1%.

As to `CC1(C)CCC[C@]2(C)[C@@H](Cc3c(O)cccc3O)[C@](C)(O)CC[C@@H]12`, the EC50 with Sclerotinia sclerotiorum [1] turned out to be 26.7 µM; with HepG2 it was 13.9 µM; in the test on MCF7 it was 16 µM; in the test with Rhizoctonia solani [3], 29.3 µM. Besides, the inhibition at 150 µM worked out at 15% in the test on Pyricularia oryzae; 50% with Phytophthora capsici; 84% with Sclerotinia sclerotiorum [2]; 49% in the test on Fusarium graminearum; 88% in the test on Rhizoctonia solani [4].

For the compound `Cc1cc(O)cc(O)c1C[C@@H]1[C@@]2(C)CCCC(C)(C)[C@@H]2CC[C@@]1(C)O`, the EC50 in the test with Sclerotinia sclerotiorum [1] is 40.4 µM; with HepG2, 11.1 µM; in the test with MCF7, 11.3 µM; in the test with Rhizoctonia solani [3], 35.2 µM. The inhibition at 150 µM amounted to 65% with Pyricularia oryzae; 29% in the test on Phytophthora capsici; 82% with Sclerotinia sclerotiorum [2]; 56% in the test with Fusarium graminearum; 92% in the test with Rhizoctonia solani [4].

Take `CC1(C)CCC[C@]2(C)[C@@H](Cc3cc(C(=O)O)ccc3O)[C@](C)(O)CC[C@@H]12`: the EC50 with Sclerotinia sclerotiorum [1] was 22.2 µM; in the test with HepG2, over 50 µM; with MCF7, 50 µM; in the test on Rhizoctonia solani [3], 22.5 µM. Besides, the inhibition at 150 µM with Pyricularia oryzae was determined as 60%; in the test with Phytophthora capsici, 62%; with Sclerotinia sclerotiorum [2], 84%; in the test with Fusarium graminearum it was 56%; in the test with Rhizoctonia solani [4] it was 85%.

For the compound `CC1(C)CCC[C@@]2(C)[C@H]1CCC1(C)Oc3ccc(Oc4cccnc4)cc3C[C@@H]12` (single isomer, unassigned), the inhibition at 150 µM in the test on Pyricularia oryzae, in the test on Phytophthora capsici, in the test with Sclerotinia sclerotiorum [2], in the test with Fusarium graminearum and in the test with Rhizoctonia solani [4] was under 60% throughout.

As to `Cc1cc(O)c(C[C@@H]2[C@@]3(C)CCCC(C)(C)[C@@H]3CC[C@@]2(C)O)c(O)c1` [ALBACONOL], the EC50 was 24.4 µM in the test on Sclerotinia sclerotiorum [1], 10.4 µM with HepG2, 10.1 µM in the test on MCF7 and over 150 µM in the test on Rhizoctonia solani [3]. Further, the inhibition at 150 µM turned out to be 7% in the test with Pyricularia oryzae; 30% with Phytophthora capsici; 72% with Sclerotinia sclerotiorum [2]; 43% with Fusarium graminearum; 49% in the test on Rhizoctonia solani [4].

Regarding `O=C(Nc1ccccc1-c1ccc(Cl)cc1)c1cccnc1Cl` [BOSCALID], the EC50 stood at 0.75 µM with Sclerotinia sclerotiorum [1] and 1.62 µM in the test on Rhizoctonia solani [3]. Also, the inhibition at 150 µM in the test with Pyricularia oryzae was 74%; with Phytophthora capsici it was 23%; with Sclerotinia sclerotiorum [2], 79%; in the test with Fusarium graminearum, 27%; in the test on Rhizoctonia solani [4], 93%.
